Measurements from patent US12509530B2, “Single domain antibodies directed against intracellular antigens” (Singh Molecular Medicine, LLC, priority 2015, dated 2025).
Values joined by “and” are separate entries in the source; they are usually repeats but may differ in a detail not shown here. Equal entries are not always repeated. Numbered stars: 1 amine (or outer) side, 2 acyl side, 3 side chain; on linkers, the order of the positions; unused ones are H or OH. Bridge positions count the residues as written; N and C are the ends. Square brackets hold non-standard residues; d marks the D form. Peptide text beside a SMILES is read from it. I, II: the chains in the order shown. Actinocin(9to1) = Cc1c2oc3c(C)ccc(C(=O)[*:1])c3nc-2c(C(=O)[*:2])c(N)c1=O; NMeV = CN[C@H](C(=O)O)C(C)C; Sar = CNCC(=O)O

Legend:
Human recombinant TNF-α = target: T1, Human recombinant TNF-α (Homo sapiens, UniProt P01375); assay: Inhibition of TNF-α cytotoxicity in L929 cells (MTS/PMS); format: cell-based, mouse
T1 construct: purchased Sigma-Aldrich
T1 sequence (P01375 77-233 limits assumed): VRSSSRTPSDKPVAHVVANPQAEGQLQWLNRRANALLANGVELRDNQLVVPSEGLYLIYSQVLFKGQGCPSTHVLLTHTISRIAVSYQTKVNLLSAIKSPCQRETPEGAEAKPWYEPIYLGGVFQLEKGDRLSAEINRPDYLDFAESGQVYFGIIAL

PANC-1 cells = assay: MTT proliferation assay, PANC-1; settings: Homo sapiens, PANC-1, 72 h
STAT3 = STAT3 reporter GloResponse SIE-luc2P/HEK293 assay, IL-6 induction; format: cell-based, human; settings: 24 and 48 hours treatment
SJSA-1 xenograft [1] = settings: mouse, in vivo
SJSA-1 xenograft [2] = assay: SJSA-1 bone osteosarcoma subcutaneous xenograft model; settings: SBT-100 5.0 mg/kg BIDx14, Doxorubicin 7.0 mg/kg days 1, 8, 14, IP
MDA-MB-231 cells = assay: MTT proliferation assay, MDA-MB-231; format: cell-based, human; settings: test article cloudy; cells lost normal morphology
[3] = target: T2, active human TNF-α full length protein (Homo sapiens, UniProt P01375); assay: TNF-α binding ELISA; settings: for detection in coated vs non-coated wells: 0.5 μg/mL coating antigen; for detection / binding to the TNF-α protein: Experiment 1
T2 construct: active human TNF-α full length protein; purchased Abcam
T2 sequence (P01375 77-233 limits assumed): as above
Experimental: In this Example, the binding of anti-TNF-α sdAbs to active human TNF-α full length protein was assessed using an enzyme linked immunosorbent assay (ELISA) format. Additionally, the feasibility of utilizing a secondary antibody targeted to the his tag portion of the sdAbs was assessed.
The test articles for this study were anti-TNF-α VHH62 (SEQ ID NO:47) sdAb, TNF-α VHH66 (SEQ ID NO:45) sdAb, and anti-TNF-α VHH69 (SEQ ID NO:46) sdAb (Experiment 1).
For the assays to assess the binding of the sdAbs to TNF-α protein (Experiment 1, 4 and 5), a standard sandwich ELISA format was utilized. […] Plates were incubated overnight at 2-8° C. After the incubation, plates were washed (3×) and blocked (3% Bovine Serum Albumin (BSA) in Phosphate Buffered Saline (PBS)) for at least one hour at room temperature.
After removal of the blocking buffer and washing (3×), samples were added to the appropriate wells of the ELISA plates and incubated at room temperature with shaking (150 rpm) for at least one hour. The secondary antibody (rabbit anti-llama biotinylated antibody at either a1:5,000 or 10,000 dilution) was then added to each well and incubated with shaking for at least one hour at room temperature.
After the incubation with secondary antibody, the plates were again washed (3×) and horseradish peroxidase (HRP) at either a 1:25,000 or 1:50,000 dilution was added to each well. Plates were incubated with shaking for at least one hour at room temperature. A final wash (3×) was performed followed by the addition of TMB (Tetramethylbenzidine) substrate. After a 20 to 25 minute incubation at room temperature, stop solution was added to halt the colorimetric reaction. The absorbance at 450 nm was measured on a VersaMax instrument utilizing SoftMax Pro GxP version 5.4 software from Molecular Devices (Sunnyvale, CA).
The final experiment performed was to confirm that the results from the ELISA testing were due to binding to the TNF-α protein and not non-specific binding of the sdAb. For this determination, a comparison was made between wells coated with 0.5 μg/mL of coating antigen and non-coated wells. […] This experiment confirms that the detection seen with the previous experiments was due to the specific binding of the VHH to the coating antigen and not due to non-specific binding.

With TNFa the “% Toxicity, Sample Replicate #” value (Human recombinant TNF-α; Assay 1 control, TNFa 0.5 μg/mL) was 101.9% and 101.6% and 101.8% (3×) and 102.1% (4×) and 102.6% and 102.7% and 101.7%.

`Cc1c2oc3c(C)ccc(C(=O)N[C@@H]4C(=O)N[C@H](C(C)C)C(=O)N5CCC[C@H]5C(=O)N(C)CC(=O)N(C)[C@@H](C(C)C)C(=O)O[C@@H]4C)c3nc-2c(C(=O)N[C@@H]2C(=O)N[C@H](C(C)C)C(=O)N3CCC[C@H]3C(=O)N(C)CC(=O)N(C)[C@@H](C(C)C)C(=O)O[C@@H]2C)c(N)c1=O` [Actinomycin D] (I: T[dV]P[Sar][NMeV] / II: T[dV]P[Sar][NMeV]; ester I:1-I:C, II:1-II:C; linker I:N-II:N via Actinocin(9to1)) was tested, and the “% Toxicity, Sample Replicate #” value (Human recombinant TNF-α; Assay 1 control, Actinomycin D only (no TNFα)) was 5.4% and 2.3% and 3.5% and 0% (8×) and the “% Toxicity, Sample Replicate #” value (Human recombinant TNF-α; Assay 2 control, Actinomycin D only (no TNFα)) was 0%.

In the case of `Nc1ccn([C@@H]2O[C@H](CO)[C@@H](O)C2(F)F)c(=O)n1` [Gemcitabine], the inhibition at 0.313 µM (PANC-1 cells; read-out: % Inh, Gemcitabine Hydrochloride (Biovision #1759) 0.313 μM, 72 hours) is reported as 0%, the inhibition at 0.625 µM (PANC-1 cells; read-out: % Inh, Gemcitabine Hydrochloride (Biovision #1759) 0.625 μM, 72 hours) is reported as 2% and the inhibition at 5 µM (PANC-1 cells; read-out: % Inh, Gemcitabine Hydrochloride (Biovision #1759) 5 μM, 72 hours) is reported as 36%. For the same molecule, the inhibition at 10 µM (PANC-1 cells; read-out: % Inh, Gemcitabine Hydrochloride (Biovision #1759) 10 μM, 72 hours) was 46%.

For `CC(=O)c1cc2c(o1)C(=O)c1ccccc1C2=O` [BB1608, napabucasin, reference compound], the “effect on IL-6 induction of the reporter” value (STAT3) was “Inhibition of IL-6”.

For `COc1cccc2c1C(=O)c1c(O)c3c(c(O)c1C2=O)C[C@@](O)(C(=O)CO)C[C@@H]3O[C@H]1C[C@H](N)[C@H](O)[C@H](C)O1` [Doxorubicin, reference compound], the “number of surviving at the end of the study” value (SJSA-1 xenograft [1]; Hsd: Athymic Nude-Fox1nu) was 2, the “Are the survival curves sig different?” value (SJSA-1 xenograft [1]) was “Yes” and the “Tumor measurement, individual animals” value (SJSA-1 xenograft [2]; day 8 post implant) was 0.00 mm^3. The “Tumor measurement, Mean Abs” value (SJSA-1 xenograft [2]; day 13 post implant) was 70.72 mm^3 and the “Tumor measurement, individual animals” value (SJSA-1 xenograft [2]; day 23 post implant) was 116.85 mm^3.

“MPT His Tag: anti-STAT3 VHH13 (SBT-100) preparation produced by Microprotein Technologies, His tagged” was tested, and the “inhibition compared with the other SBT-100 preparations” value (MDA-MB-231 cells) was “greatest inhibition”.

B1: anti-TNF-α VHH62: anti-TNF-α sdAb, SEQ ID NO:47 (TNF_62, SEQ ID NO: 66) (protein)
VHH: QVQLVESGGGPVQAGETLRLSCTASGFTFAEADMGWYRQAPGHECELVSTITTEGITSEASSYYADSVRGRFTISRDNAKNMVYLQMNSLKPEDTAVYYCAPDPYAYSTYSDYCSWAQGTQGTLVTVSS
modifications: Camelid
For B1, the “detection in coated vs non-coated wells” value ([3]; 1 μg/mL sdAb) was “not detected in either coated or non-coated wells”, the “detection / binding to the TNF-α protein” value ([3]; 1 μg/mL sdAb) was “little to no detection” and the OD values ([3]; Experiment 4, 10-fold serial dilutions, old and new batch) was < 0.2 OD450. The “OD450 Values, Non-Coated” value ([3]; non-coated wells (non-specific binding), 1 μg/mL sdAb) was −0.001.

B2: anti-STAT3 VHH14: anti-STAT3 single domain antibody, SEQ ID NO:4 (same sequence as STAT3_14, SEQ ID NO: 8) (protein)
VHH: QVQLVESGGGSVQAGGSLRLSCVASTYTGCMGWFRQAPGKEREGVAALSSRGFAGHYTDSVKGRFSISRDYVKNAVYLQMNTVKPEDAAMYYCAAREGWECGETWLDRTAGGHTYWGQGTLVTVSS
modifications: Camelid
In the case of B2, the “effect on IL-6 induction of the reporter” value (STAT3) is reported as “enhancement of the IL-6 induction”.

B3: anti-TNF-α VHH69: anti-TNF-α sdAb, SEQ ID NO:46 (TNF_69, SEQ ID NO: 64) (protein)
VHH: EVQLVESGGGSVLAGGSLRLSCVASGFTSRYNYMAWFRQAPGKEREGVATIGTASGSADYYGSVKDRFTISQDNAKNTVYLQMNSLKPEDTAMYYCAARTYGTISLTPSDYRYWGQGTLVTVSS
modifications: Camelid
B3 was tested, and the “effect on IL-6 induction of the reporter” value (STAT3) was “enhancement of the IL-6 induction”, the “detection in coated vs non-coated wells” value ([3]; 1 μg/mL sdAb) was “detected in coated wells but not in non-coated wells” and the “detection / binding to the TNF-α protein” value ([3]; 1 μg/mL sdAb) was “little to no detection”.
